Measured values from a melting point compilation (Tetko et al.; mined from patent text by program, amines drawn as free bases though some values may be those of a salt).

Compound	melting point [°C]
C=C(C)COc1ccc(OC)cc1-c1nc2ccccc2[nH]1	144 to 148
COc1ccc(C(=O)CCc2cccnc2)cc1	76 to 78
CSc1ccc(C(=CN(C)C)C(C)=O)cc1	89 to 91
C=CCN(C)c1c(C=NO)c(=O)n(C)c(=O)n1C	95.5 to 97.1
CC(=O)NC(CCc1ccc(C(O)CCCCCCc2ccccc2)cc1)(CO[Si](C)(C)C(C)(C)C)CO[Si](C)(C)C(C)(C)C (stereo not drawn)	121 to 122
Cc1cc(S(=O)(=O)Nc2cc(F)c(Oc3cnc4ccccc4c3)c(Cl)c2)c(Cl)cc1Cl	187
CN1C(=O)CCCc2cc(Nc3ncc(Cl)c(Nc4ccc(N5CCOCC5)cc4C(N)=O)n3)ccc21	288 to 290
Cc1cc(C)c2c(n1)Nc1ccccc1NC2=O	297 to 299
COCCOC(=O)c1cc(-n2c(OC)nc(C(F)(F)C(F)(F)F)cc2=O)c(F)cc1Cl	92 to 94
Clc1ccc(Br)c2nc(SCc3ccccc3)nn12	122 to 124
Oc1nc(Cl)n(-c2ccccc2)n1	147 to 149
CC(C)(C)c1nc2cc(N3CCN(S(C)(=O)=O)CC3)c([N+](=O)[O-])cc2s1	195 to 197
CC(C)c1ccccc1N1C(=O)CS/C1=N\C(=O)Nc1ccc(-c2nnc(-c3ccc(OC(F)(F)C(F)(F)F)cc3)o2)cc1	244 to 247
